Reference: US20220296573A1, “NOVEL COMPOUNDS AND PHARMACEUTICAL COMPOSITIONS THEREOF FOR THE TREATMENT OF INFLAMMATORY DISORDERS” (Galapagos NV, priority 2019, published 2022)

Columns and labels:
Format in all cases: cell-based
[1] = tested on: CL097 triggered TNFα release in human whole blood; assay: Ex vivo human TNFα release inhibition (whole blood assay); conditions: CL097 2 μg/mL, 3 h 30 min
Text: The aim of the assay is to evaluate the activity of compounds of the invention on the activated TLR/IRAK-4 pathway in an ex vivo human whole blood setting. Toll-like receptors (TLRs) are pattern recognition receptors that recognize a wide variety of microbial molecules, called pathogen-associated molecular patterns (PAMPs). Human TLR7 and TLR8 recognize imidazoquinoline compounds (e.g., CL097—CAS n #1026249-18-2) and single stranded RNAs as their natural ligands. Activation of TLRs leads to the production of several cytokines (e.g., IFNα, TNFα, IL-8, IL-6) by the TLR agonist-treated cells, whereas IRAK4 leads to the production of IFNα. Cytokine release is used as readout in this assay and represents a measure for the level of inhibition of the TLR/IRAK-4 pathway by the tested compound. It should be noted that in the context of the complete organism, other sources for these cytokines exist that are not dependent on the TLR/IRAK-4 pathway, such as e.g., macrophages (upon activation of the Fcγ receptor (Yan et al. 2012)) or T cells (upon activation of the T cell receptor (Brehm, Daniels, and Welsh 2005)).
Blood is collected from healthy volunteers into lithium heparin tubes by venipuncture, then gently inverted several times to prevent clotting and incubated for at least 15 min at 37° C. on a rocking mixer shaker. Then, 100 μL of blood is dispensed into polypropylene 96-well microplate and pre-incubated in duplicate with 0.3% DMSO or test compound at different concentrations (from 30 to 0.01 μM, 3-fold dilutions to get 0.3% DMSO at the final) for 15 min at 37° C. After this pre-incubation, blood is triggered with CL097 (2 μg/mL from 1 mg/mL solution in water; InvivoGen, tlr1-c97) for 3 h 30 min at 37° C. Microtubes are centrifuged at 5000×g for 10 min at 4° C. and approximately 40 μL of plasma are collected into a polystyrene 96-well plate. Plasma can be analyzed freshly, within 30 min after triggering, or frozen at −80° C. Finally, the quantification of IFNα and IFNα were performed in the plasma using AlphaLISA Kit for […] according to the manufacturer's instructions and read on the Ensight (PerkinElmer).
For each blood sample, the TNFα concentrations of the samples were determined from the fit. Data were then expressed as a percentage of inhibition (PIN) for each replicate using the formula:
With mean TNFα with CL097=mean TNFα concentration of replicate samples triggered with CL097; TNFαsample1=TNFα concentration of sample 1; mean TNFα with vehicle=mean TNFα concentration of replicate samples treated with vehicle.
Curve fitting for pIC50 determination were generated using mean PIN±sem. Graphs and pIC50 calculations were derived using Prism 5.03 software (GraphPad).

[2] = tested on: LPS driven NFκB-reporter activity; assay: THP1-Lucia NFκB reporter assay, LPS trigger; conditions: THP-1-Lucia NFκB cells, LPS 2.5 ng/mL, 24 h; read-out: average pEC50, LPS driven NFκB-reporter activity (converted)
Text: (§1) This assay is used to evaluate the IRAK4 selectivity and potency of the compounds of the invention upon IRAK4 dependent (LPS and IL-1β) and independent triggering (TNFα), in a THP1-Lucia NFκB reporter assay.
(§2) THP-1-Lucia NFκB cells (Invivogen—5, rue Jean Rodier 31400 Toulouse France—cat #thp1-nfkb) were cultivated as recommended by the supplier using split cycles each cycle comprising a succession of thawing/expansion/seeding. The data reported were generated using cells having between 3 to 9 cycles. On the day of the experiment THP-1-Lucia NFκB cells were counted and seeded at a density of 1,000,000 cells/mL in culture medium (RPMI 1640 (Gibco, Cat #52400-025)+10% FBS (Sigma, Cat #F7524-500ML)+1% P/S (Gibco, Cat #15140-122)) by pipetting 54 μL/well in a 384 well plate. […]
(§3) For the readout, supernatant samples were thawed on ice and 5 μL sample was transferred from each well to a new 384-well plate. 20 μL of Quanti-Luc solution (Quanti-Luc powder (Invivogen, Cat #rep-qlc1) dissolved in 25 mL sterile water as indicated by the manufacturer) was added to each well after which luminescence was immediately measured on an Envision instrument.
(§4) To measure the inhibition of LPS/TNFα/IL-1β-induced NFκB-reporter activity, percentage inhibition (PIN) values were calculated for all concentrations tested, compared to controls. […]

[3] = tested on: IL-1β driven NFκB-reporter activity; assay: THP1-Lucia NFκB reporter assay, IL-1β trigger; conditions: THP-1-Lucia NFκB cells, IL-1β 3 ng/mL, 24 h; read-out: average pEC50, IL-1β driven NFκB-reporter activity (converted)
Text: as §1, §2, §3, §4

[4] = tested on: TNFα mediated NFκB-reporter activity; assay: THP1-Lucia NFκB reporter assay, TNFα trigger; conditions: THP-1-Lucia NFκB cells, TNFα 10 ng/mL, 24 h
Text: as §1, §2, §3, §4

COc1cc2nc(C3COCCO3)cn2cc1NC(=O)c1cccn(C2CCC2)c1=O (stereo not shown) [Compound 5, 1-cyclobutyl-N-[2-(1,4-dioxan-2-yl)-7-methoxy-imidazo[1,2-a]pyridin-6-yl]-2-oxo-pyridine-3-carboxamide]
IC50 [1]: 1000 to 5000 nM

COc1cc2nc(C3CCS(=O)(=O)CC3)cn2cc1NC(=O)c1cccn(C2CC2)c1=O [Compound 23, 1-cyclopropyl-N-(2-(1,1-dioxidotetrahydro-2H-thiopyran-4-yl)-7-methoxyimidazo[1,2-a]pyridin-6-yl)-2-oxo-1,2-dihydropyridine-3-carboxamide]
IC50 [1]: 0.1 to 500 nM

CC(F)(F)c1cccc(C(=O)Nc2cn3cc(C4COCCO4)nc3cc2C(N)=O)n1 (stereo not shown) [Compound 11, 6-(6-(1,1-difluoroethyl)picolinamido)-2-(1,4-dioxan-2-yl)imidazo[1,2-a]pyridine-7-carboxamide]
IC50 [1]: 0.1 to 500 nM

COc1cc2nc(C3COCCO3)cn2cc1NC(=O)c1cccn(C2CC2)c1=O (racemic) [Compound 1, 1-cyclopropyl-N-[2-(1,4-dioxan-2-yl)-7-methoxy-imidazo[1,2-a]pyridin-6-yl]-2-oxo-pyridine-3-carboxamide]
EC50 [2]: 617 nM | EC50 [3]: 39.8 nM | activity on TNFα mediated NFκB-reporter activity [4]: no activity was observed | IC50 [1]: 0.1 to 500 nM
